In this assay the target is Stromelysin (Homo sapiens, UniProt P08254). Briefly: MMP inhibition, particle concentration fluorescence assay. The format is biochemical. As to conditions: in vitro; fluorescein/biotin substrate; MMP buffer pH 7.5; room temperature.

Where a name gives a salt, the structure may show the parent alone.

Sequence of Stromelysin (P08254 100-477): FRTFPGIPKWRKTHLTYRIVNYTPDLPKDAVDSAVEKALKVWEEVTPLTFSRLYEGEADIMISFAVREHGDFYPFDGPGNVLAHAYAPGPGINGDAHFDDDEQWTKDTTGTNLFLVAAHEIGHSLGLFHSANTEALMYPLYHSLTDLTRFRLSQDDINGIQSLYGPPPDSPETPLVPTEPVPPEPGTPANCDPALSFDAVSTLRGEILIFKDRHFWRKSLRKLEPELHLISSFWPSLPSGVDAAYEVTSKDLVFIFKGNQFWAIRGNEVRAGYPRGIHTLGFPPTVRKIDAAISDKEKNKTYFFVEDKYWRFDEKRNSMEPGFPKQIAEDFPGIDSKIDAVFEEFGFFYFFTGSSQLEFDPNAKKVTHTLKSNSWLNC
Method: Inhibitory activity is evaluated in one or more of the MMP enzymes (stromelysin, gelatinase, and collagenase) in vitro using particle concentration fluorescence assay. An inhibitor binds to MMP enzymes which prevents the degradation of a substrate by stromelysin, gelatinase, or collagenase. The substrate has attached to it a fluorescein and a biotin moiety. The intact substrate then binds to an avidin-coated particle via the biotin moiety. Once the particle is washed and dried, a fluorescent signal is generated since the fluorescent group is attached to the particle. Without an inhibitor present, the substrate is degraded by MMP enzymes and the fluorescein group is removed, therefore, no fluorescent signal can be detected. Testing compounds are dissolved in DMSO to the desired concentration, then the solutions are diluted to 1:5 with MMP buffer (50 mM Tris-HCl, pH 7.5; 150 mM NaCl; 0.02% NaN3). Serial two-fold dilutions of each compound are prepared. A concentrated, activated enzyme solution is transferred into each plate of the testing compounds, and the mixture is incubated at room temperature for 15 minutes. […] At this point, the substrate mixture is mixed with 0.1% avidin-coated polystyrene particles. After 15 minutes, the fluorescence values are measured following filtration and washing of the beads. Ki values are then calculated.

For the molecule `O=C(Nc1n[nH]c(=S)s1)N[C@@H](Cc1ccccc1)C(=O)NCCCCc1ccccc1` [Example 37, aα-[[[(4,5-Dihydro-5-thioxo-1,3,4-thiadiazol-2-yl)amino]carbonyl]amino]-N-(4-phenylbutyl)-(S)-benzenepropanamide], affinity was put at a Ki of 0.82 µM.
With `O=C(Nc1n[nH]c(=S)s1)N[C@@H](CC1CCCCC1)C(=O)NCCc1ccccc1` [Example 62, α-[[[(4,5-Dihydro-5-thioxo-1,3,4-thiadiazol-2-yl)amino]carbonyl]amino]-N-(2-phenylethyl)-(S)-cyclohexanepropanamide], the affinity, expressed as Ki, was 0.65 µM. This Ki and that of the molecule before are within 1.5-fold of each other.
Turning to `COC(=O)[C@H](Cc1ccc([N+](=O)[O-])cc1)NC(=O)Nc1n[nH]c(=S)s1` [Example 32, N-[[(4,5-Dihydro-5-thioxo-1,3,4-thiadiazol-2-yl)amino]carbonyl]-L-(4-nitrophenyl)alanine methyl ester], affinity was put at a Ki of 1.87 µM.
Then `O=C(Nc1n[nH]c(=S)s1)N[C@@H](Cc1ccccc1)C(=O)NCCCO` [Example 41, α-[[[(4,5-Dihydro-5-thioxo-1,3,4-thiadiazol-2-yl)amino]-carbonyl]amino]-N-(3-hydroxypropyl)-(S)-benzenepropanamide], with 1.12 µM.
For `COC(=O)[C@H](CSCc1ccc(C)cc1)NC(=O)Nc1n[nH]c(=S)s1` [Example 65, N-[[(4,5-Dihydro-5-thioxo-1,3,4-thiadiazol-2-yl)amino]carbonyl]-S-[(4-methylphenyl)methyl]-L-cysteine methyl ester], the affinity corresponds to a Ki of 2.55 µM.
As for `CNC(=O)[C@H](Cc1ccc(-c2ccccc2)cc1)NC(=O)Nc1n[nH]c(=S)s1` [Example 79, α-[[[(4,5-Dihydro-5-thioxo-1,3,4-thiadiazol-2-yl)amino]carbonyl]amino]-N-methyl-(S)-(1,1'-biphenyl)-4-propanamide], the figure is 7.39 µM; as for `O=C(O)CCNC(=O)[C@H](Cc1ccccc1)NC(=O)Nc1n[nH]c(=S)s1` [Example 44], 1.08 µM.
Then `COC(=O)[C@H](Cc1ccc(OC)cc1)NC(=O)Nc1n[nH]c(=S)s1` [Example 30, N-[[(4,5-Dihydro-5-thioxo-1,3,4-thiadiazol-2-yl)amino]carbonyl]-O-methyl-L-tyrosine methyl ester], with 2.75 µM; and `O=C(Nc1n[nH]c(=S)s1)N[C@@H](Cc1ccccc1)C(=O)NCCCc1ccccc1` [Example 51, α-[[[(4,5-Dihydro-5-thioxo-1,3,4-thiadiazol-2-yl)amino]carbonyl]amino]-N-(3-phenylpropyl)-(S)-benzenepropanamide], with 1.02 µM.
As for `COC(=O)[C@H](CSCc1ccc(OC)cc1)NC(=O)Nc1n[nH]c(=S)s1` [Example 68, N-[[(4,5-Dihydro-5-thioxo-1,3,4-thiadiazol-2-yl)amino]carbonyl]-S-[(4-methoxyphenyl)methyl]-L-cysteine methyl ester], the figure is 2.05 µM; as for `COC(=O)[C@H](Cc1ccc(O[Si](C)(C)C(C)(C)C)cc1)NC(=O)Nc1n[nH]c(=S)s1` [Example 47, N-[[(4,5-Dihydro-5-thioxo-1,3,4-thiadiazol-2-yl)amino]carbonyl]-O-[(1,1-dimethylethyl)dimethylsilyl]-L-tyrosine methyl ester], 6.37 µM.
In the case of `O=C(Nc1n[nH]c(=S)s1)N[C@@H](Cc1ccccc1)C(=O)NCc1ccncc1` [Example 17, α-[[[(4,5-Dihydro-5-thioxo-1,3,4-thiadiazol-2-yl)amino]-carbonyl]amino]-N-(4-pyridinylmethyl)-(S)-benzenepropanamide], the inhibition constant Ki (as a rule, a measure of affinity in units of concentration, obtained from inhibition or displacement) was found to be 1.27 µM.
Then `CNC(=O)C(Cc1ccc(Br)cc1)NC(=O)Nc1n[nH]c(=S)s1` (stereo not drawn) [Example 20, α-[[[(4,5-Dihydro-5-thioxo-1,3,4-thiadiazol-2-yl)amino]carbonyl]-amino]-N-methyl-4-bromobenzene-propanamide], with 0.8 µM; and `CCOC(=O)CCNC(=O)[C@H](Cc1ccccc1)NC(=O)Nc1n[nH]c(=S)s1` [Example 42, N-[[(4,5-Dihydro-5-thioxo-1,3,4-thiadiazol-2-yl)amino]carbonyl]-L-phenylalanyl-β-alanine ethyl ester], with 0.78 µM.
As for `O=C(Nc1n[nH]c(=S)s1)N[C@@H](Cc1ccccc1)C(=O)N1CCN(c2ccccc2)CC1` [Example 50, (S)-1-[2-[[[(4,5-Dihydro-5-thioxo-1,3,4-thiadiazol-2-yl)amino]carbonyl]amino]-1-oxo-3-phenylpropyl]-4-phenylpiperazine], the figure is 1.68 µM; as for `O=C(Nc1n[nH]c(=S)s1)N[C@@H](Cc1ccccc1)C(=O)NCc1ccccn1` [Example 7, α-[[[(4,5-Dihydro-5-thioxo-1,3,4-thiadiazol-2-yl)amino]carbonyl]-amino]-N-(2-pyridinylmethyl)-(S)-benzenepropanamide], 1.1 µM.
As for `O=C(Nc1n[nH]c(=S)s1)N[C@@H](Cc1ccccc1)C(=O)N1CCNCC1` [Example 56, (S)-1-[2-[[[(4,5-Dihydro-5-thioxo-1,3,4-thiadiazol-2-yl)amino]carbonyl]amino]-1-oxo-3-phenylpropyl]piperazine trifluoroacetate], the figure is 5.27 µM; as for `CCCCNC(=O)[C@H](Cc1ccc([N+](=O)[O-])cc1)NC(=O)Nc1n[nH]c(=S)s1` [Example 35, N-Butyl-α-[[[(4,5-dihydro-5-thioxo-1,3,4-thiadiazol-2-yl)amino]carbonyl]amino]-4-nitro-(S)-benzenepropanamide], 0.35 µM; as for `COC(=O)[C@@H](NC(=O)Nc1n[nH]c(=S)s1)[C@@H](C)OCc1ccccc1` [Example 64, N-[[(4,5-Dihydro-5-thioxo-1,3,4-thiadiazol-2-yl)amino]carbonyl]-O-(phenylmethyl)-L-threonine methyl ester], 9.56 µM.
The molecule `O=C(Nc1n[nH]c(=S)s1)N[C@@H](Cc1ccccc1)C(=O)NCc1ccc([N+](=O)[O-])cc1` [Example 53, α-[[[(4,5-Dihydro-5-thioxo-1,3,4-thiadiazol-2-yl)amino]carbonyl]amino]-N-[(4-nitrophenyl)methyl]-(S)-benzenepropanamide] yielded a Ki of 1.31 µM.
As for `CNC(=O)[C@H](CSCc1ccccc1)NC(=O)Nc1n[nH]c(=S)s1` [Example 72, 2-[[[(4,5-Dihydro-5-thioxo-1,3,4-thiadiazol-2-yl)amino]carbonyl]-amino]-N-methyl-3-[(phenylmethyl)thio]-(R)-propanamide], the Ki turned out to be 1.05 µM. This Ki and that of the molecule before are within 1.5-fold of each other.
`COC(=O)[C@H](CSCc1ccccc1)NC(=O)Nc1n[nH]c(=S)s1` [Example 71, N-[[(4,5-Dihydro-5-thioxo-1,3,4-thiadiazol-2-yl)amino]carbonyl]-S-(phenylmethyl)-L-cysteine methyl ester] displayed an inhibition constant (Ki) of 2.51 µM. This Ki lies about 2.4-fold higher than the previous one.
`CNC(=O)[C@H](CO[Si](C)(C)C(C)(C)C)NC(=O)Nc1n[nH]c(=S)s1` [Example 46, 2-[[[(4,5-Dihydro-5-thioxo-1,3,4-thiadiazol-2-yl)amino]carbonyl]amino]-3-[(1,1-dimethylethyl)-dimethylsilyloxy]-N-methyl-(S)-propanamide] registered an inhibition constant Ki of 0.75 µM.
As for `CNC(=O)[C@H](Cc1c[nH]c2ccccc12)NC(=O)Nc1n[nH]c(=S)s1` [Example 13, α-[[[(4,5-Dihydro-5-thioxo-1,3,4-thiadiazol-2-yl)amino]carbonyl]-amino]-N-methyl-(S)-1H-indole-3-propanamide], the figure is 2.5 µM; as for `CC(C)(C)c1ccc(CNC(=O)[C@H](Cc2ccccc2)NC(=O)Nc2n[nH]c(=S)s2)cc1` [Example 54, α-[[[(4,5-Dihydro-5-thioxo-1,3,4-thiadiazol-2-yl)amino]-carbonyl]amino]-N-[[4-(1,1-dimethylethyl)phenyl]methyl]-(S)-benzenepropanamide], 1.74 µM.
As for `COC(=O)[C@H](COCc1ccccc1)NC(=O)Nc1n[nH]c(=S)s1` [Example 63, N-[[(4,5-Dihydro-5-thioxo-1,3,4-thiadiazol-2-yl)amino]carbonyl]-O-(phenylmethyl)-L-serine methyl ester], the figure is 2.39 µM; as for `O=C(Nc1n[nH]c(=S)s1)N[C@@H](Cc1ccc([N+](=O)[O-])cc1)C(=O)NCCc1ccccc1` [Example 34, α-[[[(4,5-Dihydro-5-thioxo-1,3,4-thiadiazol-2-yl)amino]carbonyl]amino]-4-nitro-N-(2-phenylethyl)-(S)-benzenepropanamide], 0.21 µM.
In turn, `CNC(=O)[C@H](COC(C)(C)C)NC(=O)Nc1n[nH]c(=S)s1` [Example 73, 2-[[[(4,5-Dihydro-5-thioxo-1,3,4-thiadiazol-2-yl)amino]carbonyl]-amino]-3-(1,1-dimethylethoxy)-N-methyl-(S)-propanamide] showed a Ki of 1.6 µM.
The molecule `O=C(Nc1n[nH]c(=S)s1)N[C@@H](Cc1ccccc1)C(=O)N1CCN(C(c2ccccc2)c2ccccc2)CC1` [Example 55, (S)-1-[2-[[[(4,5-Dihydro-5-thioxo-1,3,4-thiadiazol-2-yl)amino]carbonyl]amino]-1-oxo-3-phenylpropyl]-4-(benzhydryl)piperazine] registered a Ki of 4.25 µM.
Then `CNC(=O)[C@H](CSCc1ccc(C)cc1)NC(=O)Nc1n[nH]c(=S)s1` [Example 70, 2-[[[(4,5-Dihydro-5-thioxo-1,3,4-thiadiazol-2-yl)amino]-carbonyl]amino]-N-methyl-3-[[(4-methylphenyl)methyl]thio]-(R)-propanamide], with 1.2 µM; and `O=C(Nc1n[nH]c(=S)s1)N[C@@H](Cc1ccccc1)C(=O)NCCc1ccccc1` [Example 6, α-[[[(4,5-Dihydro-5-thioxo-1,3,4-thiadiazol-2-yl)amino]carbonyl]-amino]-N-(2-phenylethyl)-(S)-benzenepropanamide], with 0.3 µM.
Regarding `O=C(Nc1n[nH]c(=S)s1)N[C@@H](Cc1ccccc1)C(=O)NCc1ccc(C(F)(F)F)cc1` [Example 52, α-[[[(4,5-Dihydro-5-thioxo-1,3,4-thiadiazol-2-yl)amino]carbonyl]-amino]-N-[(4-trifluoromethylphenyl)methyl]-(S)-benzenepropanamide], the Ki turned out to be 0.75 µM.
Turning to `CNC(=O)[C@H](Cc1ccc(C(C)(C)C)cc1)NC(=O)Nc1n[nH]c(=S)s1` [Example 81, α-[[[(4,5-dihydro-5-thioxo-1,3,4-thiadiazol-2-yl)amino]carbonyl]amino]-4-(1,1-dimethylethyl)-N-methyl-(S)-benzenepropanamide], affinity was put at a Ki of 1.82 µM.

Values taken from patent publication EP0900211B1 (PHARMACIA & UPJOHN COMPANY, priority 1996, dated 1997).
